Source: patent US20140147410A1, “MICROBICIDE COMBINATIONS CONTAINING SILVER” (priority 2011, published 2014)

Experiments:
Type in all cases: cell-based
[1] = test system: Aspergillus niger ATCC# 16404; experiment: HRMIC synergy test, mold; conditions: A. niger, biocide alone
Procedure: (§1) The combinations were evaluated for synergy by determining the synergy index (S.I.) of the combination. The Synergy index calculated is based on minimum inhibitory concentrations (MIC) of two biocides (A and B) alone and in combinations. The lower the S.I. value, the better the synergy. High Resolution Minimum Inhibitory Concentration (HRMIC) method was performed to determine the potential for synergy of the combinations. The tests organisms were gram negative bacteria (Pseudomonas aeruginosa), Gram positive bacteria (Staphylococcus aureus), yeast (Candida albicans) and mold (Aspergillus niger). Contact time for the bacteria was 24 and 48 hours, yeast was 48 and 72 hrs, 3 and 7 days for mold. The test was carried out in 96well microtiter plates. […] Ca/CA+Cb/CB=Synergy Index(“SI”) • CA=concentration of compound A in ppm, acting alone, which produced an end point (MIC of Compound A). • Ca=concentration of compound A in ppm, in the mixture, which produced an end point. • CB=concentration of compound B in ppm, acting alone, which produced an end point (MIC of Compound B). • Cb=concentration of compound B in ppm, in the mixture, which produced an end point. When the sum of Ca/CA and Cb/CB is greater than one, antagonism is indicated. […] [table] [table]

[2] = test system: Candida albicans ATCC#10203; experiment: HRMIC synergy test, yeast; conditions: C. albicans, biocide alone
Procedure: as §1

[3] = test system: Pseudomonas aeruginosa ATCC # 15442; experiment: HRMIC synergy test, gram negative bacteria; conditions: Ps. aeruginosa, contact time 24 hrs, biocide alone
Procedure: as §1

[4] = test system: Staphylococcus aureus ATCC# 6538; experiment: HRMIC synergy test, Gram positive bacteria; conditions: S. aureus, biocide alone
Procedure: as §1

Cc1ccc(S(=O)(=O)C(I)I)cc1 [DIMTS, diiodomethyl-p-tolylsulfone]
MIC alone (CA / CB) ([1]; contact time 3rd day): 0.3 ppm AI
MIC alone (CA / CB) ([1]; contact time 7th day): 0.5 ppm AI
MIC alone (CA / CB) ([2]; contact time 48 hrs): 20 ppm AI
MIC alone (CA / CB) ([2]; contact time 72 hrs): 30 ppm AI
MIC alone (CA / CB) [3]: >1000 ppm AI
MIC alone (CA / CB) ([4]; contact time 24 hrs): 30 ppm AI
MIC alone (CA / CB) ([4]; contact time 48 hrs): 400 ppm AI
